This is an account of results in patent US20150337351A1, “METHODS OF MICROORGANISM IMMOBILIZATION” (priority 2014, published 2015).

What all share (assay type): cell-based
For assay [1], the system named is Escherichia coli ATCC 25922 (Ecol). In words: Biosensor mixed species diffusion assay (immobilized cells, microscopic detection), growth of sentinel strain. The following applies: for Mixed species resistance factor diffusion? / Ecol growth in distal site? / Ecol growth in proximal site?: MEM 4 (4 μg/mL); for Ecol growth in distal site?: distal from Paer; for Ecol growth in proximal site?: proximal to Paer. The procedure: (§1) A mixed species diffusion variation of Hodge test using a biosensor with immobilized cells and microscopic detection was performed using the same bacterial strains. Heavy suspensions of Ecol and Paer were prepared in L-histidine buffer from fresh overnight blood agar plates. Heavy suspensions were diluted in normal saline to produce 0.5 McFarland suspensions, noting the volumes of each suspension required and using the same volumes to produce 10^8 cfu/mL suspensions of each strain in L-histidine. These suspensions were further diluted to create […] and 2×10^5 cfu/mL suspensions for heavy and moderate density working samples. The working samples were then diluted 1:1 in 2 mM L-DOPA for EKC.
(§2) The strains were next introduced to a biosensor for EKC, immobilization, and detection. Paer suspensions were loaded first, placing 5 uL in the exit port side (to maintain the resistant Paer isolate in one half of each channel) of each biosensor flowcell channel to cover one half of the flowcell. Six flowcells were loaded with each concentration. EKC was performed for 5 minutes at 1.5V, and then all flowcells were washed with two aliquots of 160 μL 1 mM L-DOPA (from the entry port). Ecol suspensions were next loaded, introducing 20 μL of cells suspension from the entry port to cover the full flowcell. Six flowcells were loaded with each concentration. EKC was performed for 5 minutes at 1.5V, and all flowcells washed with 160 μL of 1/10 MHB. The manner in which the cells were introduced and captures created a site comprising Ecol cells that were distal from any Paer cells (i.e., on the entry port side of the flowcell), as well as Ecol cells that were proximal to the Paer cells (i.e., on the exit port side of the flowcell).
(§3) Antibiotic media were prepared for immobilization and inhibition testing as follows. […] An immobilization medium source plate was prepared in the detection system and maintained at 45° C. The source plate wells were loaded with 20 μL of the 10× stocks and MHB without antibiotic for growth controls. The sample cassette was placed in the detection system and maintained at 40° C. A 180 uL volume of 0.944% MHA was added to each well of the source plate and mixed, and 100 uL of pre-immobilization immobilizing medium (with an agar concentration of 0.850%) was withdrawn and introduced to a flowcell in accordance with the experimental design. The loaded biosensor was allowed to equilibrate for 5 minutes, and was then removed and cooled for 5 minutes to induce the agar immobilizing agent to change to solid phase. The flowcell ports were then sealed, and growth, imaging, and analysis were performed, with examination of each flowcell for growth of Paer, examination of the distal portion of each flowcell for growth of Ecol in the absence of Paer (distal sensitivity), and examination of the proximal portion of each flowcell for growth of Ecol in the presence of Paer (proximal resistance), indicative of a positive mixed species resistance due to diffusion of metallo-beta-lactamase.
(§4) In order to test for enzyme-mediated cross-species resistance effects, a method for was devised to test a sensitive strain, Escherichia coli ATCC 25922 (Ecol), in the presence of a resistant strain, Pseudomonas aeruginosa IHMA 519749 (Paer) in the immobilized format. The method involved first immobilizing the resistant strain on the surface of a portion of each test flowcell of the cassette (approximately half) and then immobilizing the sensitive (sentinel) strain on the surface of the full flowcell including the area containing the resistant strain. This strategy provides an internal control for treatment effects on the sentinel strain in an area far from the resistant strain along with an area where close-field effects can be observed in the same flowcell. […]

The test system of assay [2] is Pseudomonas aeruginosa IHMA 519749 (Paer). In words: Biosensor mixed species diffusion assay (immobilized cells, microscopic detection), growth of resistant strain. The following applies: for Paer growth?: MEM 4 (4 μg/mL), MHA 0.850% agar, 4 hours. Here is the method:
as §1, §2, §3, §4

For assay [3], the system named is Staphylococcus aureus (SA). In words: Clone growth of captured, MHA-immobilized cells from simulated blood, darkfield digital microscopy. The following applies: 6 μg/mL FOX; 3 hours (0, 60, 120, 180 minutes); 35° C. Here is the method: Simulated blood specimens were used. Simulated blood specimens were produced by spiking SA, PA, and non-target bacilli species isolates into 10 mL volumes of blood from two short-fill CPD blood bank bags. A total of 29 simulated blood samples were produced, each having a microorganism concentration of approximately 5 CFU/mL of bacterial target species, confirmed by quantitative culture. Spiked isolates used to produce the simulated blood samples included 14 Staphylococcus aureus (SA), 3 Pseudomonas aeruginosa (PA), and 12 non-target Gram-negative bacilli species. Twenty additional control samples were produced which contained no spikes. Each sample was diluted with 30 mL of modified tryptic soy broth medium to promote growth, followed by a 4-hour incubation at 35° C. Following the 4-hour incubation period, samples were centrifuged briefly. The resulting microorganism cells pellets were resuspended in an electrokinetic concentration buffer to produce 1 mL samples for introduction into the detection system. Microorganism samples comprising 20 μL aliquots were pipetted into 14 microchannel flowcells. A 5-minute low-voltage electrokinetic capture was performed to concentrate the microorganisms on to a detection surface associated with each flowcell. […] Controls included quantitative culturing, disk diffusion tests for isolate resistance phenotype, and 20 blood samples without spikes.

The mark [4] stands for this setting: Flowcell 9, Ecol 10^6/Paer 10^6.
The mark [5] stands for this setting: Flowcell 9, Ecol 10^6/Paer 10^6, 4 hours.
The mark [6] stands for this setting: Flowcell 10, Ecol 10^6/Paer 10^5.
Where [7] appears, read: Flowcell 10, Ecol 10^6/Paer 10^5, 4 hours.
Setting [8] is: Flowcell 11, Ecol 10^5/Paer 10^6.
Setting [9] is: Flowcell 11, Ecol 10^5/Paer 10^6, 4 hours.
Where [10] appears, read: Flowcell 12, Ecol 10^5/Paer 10^5.
Where [11] appears, read: Flowcell 12, Ecol 10^5/Paer 10^5, 4 hours.

As for `C[C@@H](O)[C@H]1C(=O)N2C(C(=O)O)=C(S[C@@H]3CN[C@H](C(=O)N(C)C)C3)[C@H](C)[C@H]12` [MEM, meropenem], the “Mixed species resistance factor diffusion?” value in assay [1] (setting [4]), in assay [1] (setting [6]), in assay [1] (setting [8]) and in assay [1] (setting [10]) was “No” throughout. In addition, the “Ecol growth in distal site?” value in assay [1] (setting [5]), in assay [1] (setting [7]), in assay [1] (setting [9]) and in assay [1] (setting [11]) was “No” in each case. The “Ecol growth in proximal site?” value in assay [1] (setting [5]), in assay [1] (setting [7]), in assay [1] (setting [9]) and in assay [1] (setting [11]) was “No” throughout. In addition, in assay [1] (MEM at 4 μg/mL, immobilized in MHA, 4 hours), the “Ecol growth and morphology under antibiotic (time-lapse images)” value was “slight growth or elongation of the single cell with later fading and in many colonies complete lysis”. Further, the “Paer growth?” value in assay [2] (setting [4]), in assay [2] (setting [6]), in assay [2] (setting [8]) and in assay [2] (setting [10]) was “Yes” in each case. Besides, in assay [2] (MEM at 4 μg/mL, immobilized in MHA, proximal site), the “Paer growth morphology and rate under antibiotic vs growth control” value is “same morphology and growth rate as the growth control condition”.

Turning to `CO[C@@]1(NC(=O)Cc2cccs2)C(=O)N2C(C(=O)O)=C(COC(N)=O)CS[C@@H]21` [FOX, cefoxitin], the “SA clone growth in immobilizing medium with antibiotic (darkfield images, FIG. 2B)” value in assay [3] is on record as “growth indicating a methicillin-resistant phenotype”.
